According to ChEMBL document CHEMBL4417636, “Small molecule inhibitors of pendrin ion exchange and pharmaceutical compositions” (2017):
Active and inactive are the calls of the source. The rule behind the calls is not given here.

Tests used:
Pendrin (Homo sapiens) [1] = target: T1, Pendrin (Homo sapiens) (UniProt O43511); assay: Inhibition of human pendrin expressed in FRT cells co-expressing EYFP-HIF assessed as reduction in pendrin-mediated anion exchange at 25 uM incubated for 10 mins by pH-sensitive fluorescent probe BCECF-AM based fluorescence assay relative to control; type: cell-based
T1 sequence (whole entry): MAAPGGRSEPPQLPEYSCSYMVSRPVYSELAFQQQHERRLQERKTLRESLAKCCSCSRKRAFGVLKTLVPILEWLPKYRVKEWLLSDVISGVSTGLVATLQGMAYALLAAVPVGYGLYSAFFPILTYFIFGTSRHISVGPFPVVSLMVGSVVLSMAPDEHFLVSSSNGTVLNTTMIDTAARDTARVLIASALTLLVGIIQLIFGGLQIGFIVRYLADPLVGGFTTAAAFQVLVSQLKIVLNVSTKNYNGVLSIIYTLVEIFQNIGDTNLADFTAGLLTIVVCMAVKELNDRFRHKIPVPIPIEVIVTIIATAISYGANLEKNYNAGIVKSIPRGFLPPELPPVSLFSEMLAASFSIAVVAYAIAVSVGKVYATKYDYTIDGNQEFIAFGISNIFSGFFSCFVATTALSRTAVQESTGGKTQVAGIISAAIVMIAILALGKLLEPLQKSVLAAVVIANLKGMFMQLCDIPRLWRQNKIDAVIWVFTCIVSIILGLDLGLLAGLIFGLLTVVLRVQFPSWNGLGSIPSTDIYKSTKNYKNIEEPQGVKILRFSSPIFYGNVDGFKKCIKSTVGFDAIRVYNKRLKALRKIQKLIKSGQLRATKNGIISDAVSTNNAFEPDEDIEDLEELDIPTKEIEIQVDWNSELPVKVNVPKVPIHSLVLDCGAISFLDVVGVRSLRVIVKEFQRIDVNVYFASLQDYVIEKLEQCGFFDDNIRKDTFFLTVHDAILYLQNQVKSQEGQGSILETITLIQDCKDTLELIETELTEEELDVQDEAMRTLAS

Pendrin (Homo sapiens) [2] = target: T1, Pendrin (Homo sapiens); assay: Inhibition of human pendrin expressed in FRT cells co-expressing EYFP-HIF assessed as reduction in pendrin-mediated anion exchange at 100 uM incubated for 10 mins by pH-sensitive fluorescent probe BCECF-AM based fluorescence assay relative to control; type: cell-based

inhibition (Pendrin (Homo sapiens) [1])	inhibition (Pendrin (Homo sapiens) [2])	SMILES
inactive		NS(=O)(=O)c1cc(C(=O)O)c(NCc2ccco2)cc1Cl
60%		Cn1nc(COc2ccc(F)cc2)c2c1CCN(C(=O)Nc1cccc(Cl)c1)C2
	< 40%	O=C(O)c1cccnc1Nc1cccc(C(F)(F)F)c1
